These results are taken from article PMC7029132, “The pentose phosphate pathway of cellulolytic clostridia relies on 6-phosphofructokinase instead of transaldolase” (The Journal of Biological Chemistry, 2019).

The target of this experiment is T1, rabbit aldolase (Oryctolagus cuniculus, UniProt P00883).
T1 construct: gene ALDOA; commercial native enzyme (Sigma A8811)
T1 sequence (P00883 2-364): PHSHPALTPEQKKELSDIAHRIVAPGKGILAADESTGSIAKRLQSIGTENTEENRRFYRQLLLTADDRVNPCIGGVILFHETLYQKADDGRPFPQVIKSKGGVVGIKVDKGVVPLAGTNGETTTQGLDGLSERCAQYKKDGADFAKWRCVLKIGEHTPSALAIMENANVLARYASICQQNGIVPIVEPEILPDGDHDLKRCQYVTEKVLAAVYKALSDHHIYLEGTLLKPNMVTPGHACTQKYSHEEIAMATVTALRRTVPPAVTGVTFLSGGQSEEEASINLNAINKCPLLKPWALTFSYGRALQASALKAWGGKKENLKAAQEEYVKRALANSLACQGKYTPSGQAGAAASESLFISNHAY
The experiment can be described thus: LC-MS time course of E4P and DHAP formation, SBP made in situ by PPi-PFK. In kind it is biochemical. Conditions: 100 mM Tris-HCl pH 7 at 55 °C, 5 mM MgCl2, 5 mM PPi, 1 mM S7P, 4 units aldolase.

As to `O=C(COP(=O)(O)O)[C@@H](O)[C@H](O)[C@H](O)[C@H](O)COP(=O)(O)O` [SBP], the “LC-MS time course of E4P and DHAP formation, SBP made in situ by PPi-PFK” value was “rabbit aldolase was able to convert the formed SBP to E4P and DHAP”.
